Columns and labels:
[1] = tested on: Lambsquarters, Common, Chenopodium album; test: Postemergence herbicidal evaluation, CHEAL; type: in vivo, L.; conditions: 0.0630 kg/ha
Method in brief: (§1)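 Scoring four to five weeks after treatment used a 0–9 scale based on plant appearance versus control. Treatment: 40 psi spray of about 0.0157–0.500 kg/ha onto two-week seedlings, compound dispersed in acetone/water 50/50 with 0.5% TWEEN 20.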

[2] = tested on: Foxtail, Green, Setaria viridis; test: Preemergence herbicidal evaluation, SETVI; type: in vivo, (L.) Beau; conditions: 0.2500 kg/ha
Source text: (§2) Results of herbicide evaluation are expressed on a rating scale (0-9). The scale is based upon a visual observation of plant stand, vigor, malformation, size, chlorosis and overall plant appearance as compared with a control.
(§3) The preemergence herbicidal activity of the test compounds of the present invention is exemplified by the following tests in which the seeds of a variety of monocotyledonous and dicotyledonous plants are separately mixed with potting soil and planted on top of approximately one inch of soil in separate pint cups. After planting, the cups are sprayed with the selected aqueous acetone solution containing test compound in sufficient quantity to provide the equivalent of about 0.0156 to 0.500 kg per hectare of test compound per cup. The treated cups are then placed on greenhouse benches, watered and cared for in accordance with conventional greenhouse procedures. From four to five weeks after treatment, the tests are terminated and each cup is examined and rated according to the rating system provided in Example 185.
(§4) The compounds evaluated are reported by compound number given in Example 185.

[3] = tested on: Ragweed, Common, Ambrosia artemisifolia; test: Preemergence herbicidal evaluation, AMBEL; type: in vivo, L.; conditions: 0.2500 kg/ha
Source text: as §2, §3, §4

[4] = tested on: Velvetleaf, Abutilon theophrasti; test: Postemergence herbicidal evaluation, ABUTH; type: in vivo, Medic.; conditions: 0.0630 kg/ha
Method in brief: as §1

[5] = tested on: Soybean, Williams, Glycine max; test: Preemergence herbicidal evaluation, GLXMAW; type: in vivo, (L.) Merr. cv Williams; conditions: 0.2500 kg/ha
Source text: as §2, §3, §4

[6] = tested on: Sicklepod, Cassia obtusifolia; test: Preemergence herbicidal evaluation, CASOB; type: in vivo, L.; conditions: 0.2500 kg/ha
Source text: as §2, §3, §4

[7] = tested on: Barnyardgrass, Echinochloa crus-galli; test: Preemergence herbicidal evaluation, ECHCG; type: in vivo, (L.) Beau; conditions: 0.2500 kg/ha
Source text: as §2, §3, §4

[8] = tested on: Ragweed, Common, Ambrosia artemisifolia; test: Postemergence herbicidal evaluation, AMBEL; type: in vivo, L.; conditions: 0.0630 kg/ha
Method in brief: as §1

[9] = tested on: Morningglory, Ivyleaf, Ipomoea hederacea; test: Postemergence herbicidal evaluation, IPOHE; type: in vivo, (L.) Jacq.; conditions: 0.0630 kg/ha
Method in brief: as §1

[10] = tested on: Morningglory, Ivyleaf, Ipomoea hederacea; test: Preemergence herbicidal evaluation, IPOHE; type: in vivo, (L.) Jacq.; conditions: 0.2500 kg/ha
Source text: as §2, §3, §4

[11] = tested on: Wheat, Winter, cv Riband, Triticum aestivum; test: Postemergence herbicidal evaluation, TRZAWR; type: in vivo; conditions: 0.0630 kg/ha
Method in brief: as §1

Corn, Field, Zea mays [12] = test: Preemergence herbicidal evaluation, ZEAMX; type: in vivo, L.; conditions: 0.2500 kg/ha
Source text: as §2, §3, §4

[13] = tested on: Foxtail, Green, Setaria viridis; test: Postemergence herbicidal evaluation, SETVI; type: in vivo, (L.) Beau; conditions: 0.0630 kg/ha
Method in brief: as §1

[14] = tested on: Rice, Tebonnet, Oryza sativa; test: Postemergence herbicidal evaluation, ORYSAT; type: in vivo, (L.) Tebonnet; conditions: 0.0630 kg/ha
Method in brief: as §1

Galium, Galium aparine [15] = test: Postemergence herbicidal evaluation, GALAP; type: in vivo; conditions: 0.0630 kg/ha
Method in brief: as §1

[16] = tested on: Wheat, Winter, cv Riband, Triticum aestivum; test: Preemergence herbicidal evaluation, TRZAWR; type: in vivo; conditions: 0.2500 kg/ha
Source text: as §2, §3, §4

[17] = tested on: Barnyardgrass, Echinochloa crus-galli; test: Postemergence herbicidal evaluation, ECHCG; type: in vivo, (L.) Beau; conditions: 0.0630 kg/ha
Method in brief: as §1

[18] = tested on: Rice, Tebonnet, Oryza sativa; test: Preemergence herbicidal evaluation, ORYSAT; type: in vivo, (L.) Tebonnet; conditions: 0.2500 kg/ha
Source text: as §2, §3, §4

Corn, Field, Zea mays [19] = test: Postemergence herbicidal evaluation, ZEAMX; type: in vivo, L.; conditions: 0.0630 kg/ha
Method in brief: as §1

[20] = tested on: Soybean, Williams, Glycine max; test: Postemergence herbicidal evaluation, GLXMAW; type: in vivo, (L.) Merr. cv Williams; conditions: 0.0630 kg/ha
Method in brief: as §1

[21] = tested on: Sicklepod, Cassia obtusifolia; test: Postemergence herbicidal evaluation, CASOB; type: in vivo, L.; conditions: 0.0630 kg/ha
Method in brief: as §1

Galium, Galium aparine [22] = test: Preemergence herbicidal evaluation, GALAP; type: in vivo; conditions: 0.2500 kg/ha
Source text: as §2, §3, §4

[23] = tested on: Velvetleaf, Abutilon theophrasti; test: Preemergence herbicidal evaluation, ABUTH; type: in vivo, Medic.; conditions: 0.2500 kg/ha
Source text: as §2, §3, §4

[24] = tested on: Lambsquarters, Common, Chenopodium album; test: Preemergence herbicidal evaluation, CHEAL; type: in vivo, L.; conditions: 0.2500 kg/ha
Source text: as §2, §3, §4

COC(=O)COc1c(C)cc(C)cc1-c1nsc2ccc(-n3c(=O)cc(C(F)(F)F)n(C)c3=O)cc12 [Compound 26, Methyl {{6-{5-[3,6-dihydro-3-methyl-2,6-dioxo-4-(trifluoromethyl)-1(2H)-pyrimidinyl]-1,2-benzisothiazol-3-yl}-2,4-xylyl}oxy}acetate]
herbicide rating (0-9) [1]: 9.0 | herbicide rating (0-9) [2]: 9.0 | herbicide rating (0-9) [3]: 9.0 | herbicide rating (0-9) [4]: 9.0 | herbicide rating (0-9) [5]: 6.0 | herbicide rating (0-9) [6]: 9.0 | herbicide rating (0-9) [7]: 7.0 | herbicide rating (0-9) [8]: 9.0 | herbicide rating (0-9) [9]: 9.0 | herbicide rating (0-9) [10]: 7.0 | herbicide rating (0-9) [11]: 8.0 | herbicide rating (0-9) (Corn, Field, Zea mays [12]): 7.0 | herbicide rating (0-9) [13]: 9.0 | herbicide rating (0-9) [14]: 2.0 | herbicide rating (0-9) (Galium, Galium aparine [15]): 9.0 | herbicide rating (0-9) [16]: 5.0 | herbicide rating (0-9) [17]: 9.0 | herbicide rating (0-9) [18]: 5.0 | herbicide rating (0-9) (Corn, Field, Zea mays [19]): 7.0 | herbicide rating (0-9) [20]: 7.5 | herbicide rating (0-9) [21]: 6.0 | herbicide rating (0-9) (Galium, Galium aparine [22]): 4.0 | herbicide rating (0-9) [23]: 9.0 | herbicide rating (0-9) [24]: 9.0

COC(=O)C(C)Oc1c(C)cc(C)cc1-c1nsc2ccc(-n3c(=O)cc(C(F)(F)F)n(C)c3=O)cc12 (stereo not drawn) [Compound 27, Methyl 2-{{6-{5-[3,6-dihydro-3-methyl-2,6-dioxo-4-(trifluoromethyl)-1(2H)-pyrimidinyl]-1,2-benzisothiazol-3-yl}-2,4-xylyl}oxy}propionate]
herbicide rating (0-9) [1]: 9.0 | herbicide rating (0-9) [2]: 9.0 | herbicide rating (0-9) [3]: 9.0 | herbicide rating (0-9) [4]: 9.0 | herbicide rating (0-9) [5]: 9.0 | herbicide rating (0-9) [6]: 9.0 | herbicide rating (0-9) [7]: 7.0 | herbicide rating (0-9) [8]: 9.0 | herbicide rating (0-9) [9]: 9.0 | herbicide rating (0-9) [10]: 6.0 | herbicide rating (0-9) [11]: 8.5 | herbicide rating (0-9) (Corn, Field, Zea mays [12]): 4.0 | herbicide rating (0-9) [13]: 7.0 | herbicide rating (0-9) [14]: 4.5 | herbicide rating (0-9) (Galium, Galium aparine [15]): 9.0 | herbicide rating (0-9) [16]: 5.0 | herbicide rating (0-9) [17]: 7.0 | herbicide rating (0-9) [18]: 2.0 | herbicide rating (0-9) (Corn, Field, Zea mays [19]): 7.0 | herbicide rating (0-9) [20]: 7.0 | herbicide rating (0-9) [21]: 4.0 | herbicide rating (0-9) (Galium, Galium aparine [22]): 2.0 | herbicide rating (0-9) [23]: 9.0 | herbicide rating (0-9) [24]: 9.0

Cn1c(C(F)(F)F)cc(=O)n(-c2ccc3onc(-c4ccccc4)c3c2)c1=O [Compound 25, 1-Methyl-3-(3-phenyl-1,2-benzisoxazol-5-yl)-6-(trifluoromethyl)-2,4 (1H,3H)-pyrimidinedione]
herbicide rating (0-9) [1]: 9.0 | herbicide rating (0-9) [2]: 9.0 | herbicide rating (0-9) [3]: 9.0 | herbicide rating (0-9) [4]: 9.0 | herbicide rating (0-9) [5]: 9.0 | herbicide rating (0-9) [6]: 9.0 | herbicide rating (0-9) [7]: 9.0 | herbicide rating (0-9) [8]: 5.0 | herbicide rating (0-9) [9]: 8.0 | herbicide rating (0-9) [10]: 9.0 | herbicide rating (0-9) [11]: 3.5 | herbicide rating (0-9) (Corn, Field, Zea mays [12]): 7.0 | herbicide rating (0-9) [13]: 7.0 | herbicide rating (0-9) [14]: 3.5 | herbicide rating (0-9) (Galium, Galium aparine [15]): 5.0 | herbicide rating (0-9) [16]: 7.0 | herbicide rating (0-9) [17]: 2.0 | herbicide rating (0-9) [18]: 7.0 | herbicide rating (0-9) (Corn, Field, Zea mays [19]): 4.5 | herbicide rating (0-9) [20]: 7.0 | herbicide rating (0-9) (Galium, Galium aparine [22]): 8.0 | herbicide rating (0-9) [23]: 9.0 | herbicide rating (0-9) [24]: 9.0

COc1c(C)cc(C)cc1-c1nsc2ccc(-n3c(=O)cc(C(F)(F)F)n(C)c3=O)cc12 [Compound 18, 3-[3-(2-Methoxy-3,5-xylyl)-1,2-benzisothiazol-5-yl]-1-methyl-6-(trifluoromethyl)-2,4(1H,3H)-pyrimidinedione]
herbicide rating (0-9) [1]: 9.0 | herbicide rating (0-9) [2]: 9.0 | herbicide rating (0-9) [3]: 9.0 | herbicide rating (0-9) [4]: 9.0 | herbicide rating (0-9) [5]: 2.0 | herbicide rating (0-9) [6]: 4.0 | herbicide rating (0-9) [7]: 5.0 | herbicide rating (0-9) [8]: 6.0 | herbicide rating (0-9) [9]: 9.0 | herbicide rating (0-9) [10]: 4.0 | herbicide rating (0-9) [11]: 2.5 | herbicide rating (0-9) (Corn, Field, Zea mays [12]): 3.0 | herbicide rating (0-9) [13]: 5.0 | herbicide rating (0-9) [14]: 2.0 | herbicide rating (0-9) (Galium, Galium aparine [15]): 5.0 | herbicide rating (0-9) [16]: 0.0 | herbicide rating (0-9) [17]: 4.0 | herbicide rating (0-9) [18]: 0.0 | herbicide rating (0-9) (Corn, Field, Zea mays [19]): 5.0 | herbicide rating (0-9) [20]: 4.0 | herbicide rating (0-9) (Galium, Galium aparine [22]): 1.0 | herbicide rating (0-9) [23]: 9.0 | herbicide rating (0-9) [24]: 9.0

COC(=O)C(C)Oc1ccc(C(C)C)cc1-c1nsc2ccc(-n3c(=O)cc(C(F)(F)F)n(C)c3=O)cc12 (stereo not drawn) [Compound 30, Methyl 2-{2-{5-[3,6-dihydro-3-methyl-4-(trifluoromethyl)-2,6-dioxo-1(2H)-pyrimidinyl]-1,2-benzisothiazol-3-yl}-4-isopropylphenoxy}propionate]
herbicide rating (0-9) [1]: 9.0 | herbicide rating (0-9) [2]: 9.0 | herbicide rating (0-9) [3]: 9.0 | herbicide rating (0-9) [4]: 9.0 | herbicide rating (0-9) [5]: 6.0 | herbicide rating (0-9) [6]: 9.0 | herbicide rating (0-9) [7]: 7.0 | herbicide rating (0-9) [8]: 9.0 | herbicide rating (0-9) [9]: 9.0 | herbicide rating (0-9) [10]: 9.0 | herbicide rating (0-9) [11]: 7.5 | herbicide rating (0-9) (Corn, Field, Zea mays [12]): 7.0 | herbicide rating (0-9) [13]: 9.0 | herbicide rating (0-9) [14]: 7.5 | herbicide rating (0-9) (Galium, Galium aparine [15]): 5.0 | herbicide rating (0-9) [16]: 7.0 | herbicide rating (0-9) [17]: 9.0 | herbicide rating (0-9) [18]: 6.0 | herbicide rating (0-9) (Corn, Field, Zea mays [19]): 9.0 | herbicide rating (0-9) [20]: 7.0 | herbicide rating (0-9) [21]: 9.0 | herbicide rating (0-9) (Galium, Galium aparine [22]): 7.0 | herbicide rating (0-9) [23]: 9.0 | herbicide rating (0-9) [24]: 9.0

COc1ccc(C)cc1-c1nsc2ccc(-n3c(=O)cc(C)n(C)c3=O)cc12 [Compound 24, 3-[3-(6-Methoxy-m-tolyl)-1,2-benzisothiazol-5-yl]-1,6-dimethyl-2,4(1H,3H)-pyrimidinedione]
herbicide rating (0-9) [1]: 0.0 | herbicide rating (0-9) [2]: 5.0 | herbicide rating (0-9) [3]: 5.0 | herbicide rating (0-9) [4]: 7.0 | herbicide rating (0-9) [5]: 1.0 | herbicide rating (0-9) [6]: 4.0 | herbicide rating (0-9) [7]: 3.0 | herbicide rating (0-9) [8]: 3.0 | herbicide rating (0-9) [9]: 4.0 | herbicide rating (0-9) [10]: 9.0 | herbicide rating (0-9) [11]: 3.0 | herbicide rating (0-9) (Corn, Field, Zea mays [12]): 2.0 | herbicide rating (0-9) [13]: 0.0 | herbicide rating (0-9) [14]: 0.5 | herbicide rating (0-9) (Galium, Galium aparine [15]): 0.0 | herbicide rating (0-9) [16]: 0.0 | herbicide rating (0-9) [17]: 0.0 | herbicide rating (0-9) [18]: 0.0 | herbicide rating (0-9) (Corn, Field, Zea mays [19]): 5.0 | herbicide rating (0-9) [20]: 3.0 | herbicide rating (0-9) (Galium, Galium aparine [22]): 3.0 | herbicide rating (0-9) [23]: 9.0 | herbicide rating (0-9) [24]: 9.0

Source: patent US6156700A, “3-(1,2-Benzisothiazol- and isoxazol-5-yl)-2,4(1H,3H)-pyrimidinedione or thione and 3-(1,2-benzisothiazol- and isoxazol-5-yl)-4(3H)-pyrimidinone or thione herbicidal agents” (American Cyanmid Company, priority 1998, dated 2000)
